Test results as given in patent US20220355283A1, “DRUG, DRUG MANUFACTURING METHOD, AND WATER PURIFICATION METHOD” (priority 2019, published 2022).
Where two headings read alike, the source gives them in different places.

Experiment: Lewis acidity measurement method (1): rate constant for the reaction between CoTPP and oxygen in the presence of a Lewis acid
Format: physicochemical
[1] = rate constant for reaction between CoTPP and oxygen in presence of the Lewis acid, MeCN, room temperature

| Compound | kcat, M^−2 s^−1 [1] | kcat, M^−2 s^−1 |
| --- | --- | --- |
| benzethonium chloride | 0.24 M^−2 s^−1 |  |
| CCCC[N+](CCCC)(CCCC)CCCC.F[P-](F)(F)(F)(F)F [tetrabutylammonium hexafluorophosphate] |  | >0.1 M^−2 s^−1 |
| benzalkonium chloride | 0.18 M^−2 s^−1 |  |
